Experimental data published in patent US9090599B2, “Heteroarylmethyl amides” (Hoffman-La Roche Inc., priority 2010, dated 2015).
Where two headings read alike, the source gives them in different places.

Tests used:
human CB1 receptor = molecular target: T1, human CB1 receptor (Homo sapiens, UniProt P21554); assay: CB1 receptor affinity, [3H]-CP-55,940 displacement, HEK cell membranes; format: binding; settings: read-out: CB1 receptor affinity [% inhibition @ 10 μM]
T1 construct: expressed in transfected cells; host or cells: human embryonic kidney (HEK) cells, Semliki Forest Virus system, membrane preparations
Method in brief: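 Membranes from HEK cells transiently expressing human CB1 (Semliki Forest Virus system) incubated with [3H]-CP-55,940 with or without test compound. Bound and free ligand separated by glass-fibre filtration and bound radioactivity counted by scintillation. Compounds tested at 10 μM, values reported as % inhibition of radioligand binding.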

human CB2 receptor = molecular target: T2, human CB2 receptor (Homo sapiens, UniProt P34972); assay: CB2 receptor affinity, [3H]-CP-55,940 displacement, HEK cell membranes; format: binding; settings: 10 μM compound, radioligand [3H]-CP-55,940
T2 construct: expressed in transfected cells; host or cells: human embryonic kidney (HEK) cells, Semliki Forest Virus system, membrane preparations
Method in brief: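 Membranes from HEK cells transiently expressing human CB2 (Semliki Forest Virus) incubated with [3H]-CP-55,940 ± compound at 10 μM. Bound ligand separated by glass-fibre filtration and counted by scintillation; reported as % inhibition at 10 μM.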

ABCA1 protein = assay: Detection of upregulation of ABCA1 protein in THP-1 macrophage cells (ApoA-I binding, high content imaging); format: cell-based; settings: 24 hrs with compound, AlexaFluor 647 ApoA-I binding, read-out: ABCA1 protein increasing efficacy EC50
Description: The ability of compounds of the invention to increase the level of ABCA1 protein is determined in replicate cultures of THP-1 macrophage cells in 96-well microplates. Cells are plated at an initial density of 100,000 cells/well in 100 μl medium and differentiated to adherent macrophages with the addition of PMA (100 nM) for 68 hrs in 10% fetal bovine serum, 3 μl/L of b-mercaptoethanol, RPMI-1640 medium. Then, cells are incubated with RPMI-1640 medium containing 1% FCS, 25 μg/ml acetylated LDL, for 24 hours at 37°. Following incubation with acetylated LDL, cells are washed twice with 50 μl PBS and incubated with 100 μl of RPMI-1640 medium containing the compound of interest solubilized in DMSO for an additional 24 hrs. The final DMSO concentration in presence of cells is maintained at 0.5%. ApoA-I binding assay using High Content Image Analysis is initiated by replacing with fresh medium, RPMI without Phenol Red, 0.2% BSA containing AlexaFluor®647 labeled ApoA-I for 2 h/37° C./5% CO2. Then, cells are fixed with 4% Formaldehyde in PBS (15 min, RT). Following Nuclei are stained with Hoechst solution (3 μM PBS) and Cytoplasm with Cell Mask Blue (2 μg/ml PBS), 15 min, RT. Finally the stained cells are fixed with a second round of formaldehyde treatment. Fixed stained cells are washed and kept in PBS at 4° C. and can be read immediately until one month after preparation.
The Alexa Fluor 647-labeled Apolipoprotein A-I (20 nM) was prepared as follows: Human recombinant Apolipoprotein A-I (ApoA-I) was exchanged to a buffer of 0.02 M NaHCO3 at pH 8.2 on an NAP desalting column (GE Healthcare) and brought to a concentration to 40 μM (1.13 mg/ml) by adjustment with the same buffer. The ApoA-I was fluorescently labeled by incubation with Alexa Fluor carboxylic acid succimidyl ester. (Alexa Fluor 647, Invitrogen A-20006) at a 2:1 molar ratio (Alexa to ApoA-I) for 1 h under shaking at RT. The remaining unconjugated label was removed by buffer exchange to 0.02M NaHCO3 at pH 8.2.
Imaging and data collection were performed on an OPERA confocal microplate imaging reader using a 20× water immersion objective and UV360 or 405 laser to identify the cell nuclei and a 635 laser to identify the fluorescent ApoA-I. Eight fields of view are captured per well. Image capture and analysis was performed with the Acapella software. Background fluorescence detected in control wells without ApoA-I was subtracted.
Using XLfit3 program (ID Business Solutions Ltd. UK), the model 205 for Dose Response One Site is used to calculate the EC50 values. […] Preferably, the compounds of the present invention have EC50 values in a range of 0.1 μM to 3 μM.

[1] = 10 μM compound, radioligand [3H]-CP-55,940

T2 sequence (P34972 whole entry): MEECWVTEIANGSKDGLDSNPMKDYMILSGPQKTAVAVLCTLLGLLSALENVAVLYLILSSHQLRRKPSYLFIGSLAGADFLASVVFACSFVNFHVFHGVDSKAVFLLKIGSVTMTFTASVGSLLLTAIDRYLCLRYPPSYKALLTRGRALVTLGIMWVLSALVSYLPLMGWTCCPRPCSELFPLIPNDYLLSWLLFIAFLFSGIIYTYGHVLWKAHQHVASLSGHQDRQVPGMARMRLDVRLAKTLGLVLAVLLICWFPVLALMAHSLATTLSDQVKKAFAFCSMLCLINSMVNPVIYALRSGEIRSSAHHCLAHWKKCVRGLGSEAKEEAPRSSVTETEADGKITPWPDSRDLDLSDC
T1 sequence (P21554 whole entry): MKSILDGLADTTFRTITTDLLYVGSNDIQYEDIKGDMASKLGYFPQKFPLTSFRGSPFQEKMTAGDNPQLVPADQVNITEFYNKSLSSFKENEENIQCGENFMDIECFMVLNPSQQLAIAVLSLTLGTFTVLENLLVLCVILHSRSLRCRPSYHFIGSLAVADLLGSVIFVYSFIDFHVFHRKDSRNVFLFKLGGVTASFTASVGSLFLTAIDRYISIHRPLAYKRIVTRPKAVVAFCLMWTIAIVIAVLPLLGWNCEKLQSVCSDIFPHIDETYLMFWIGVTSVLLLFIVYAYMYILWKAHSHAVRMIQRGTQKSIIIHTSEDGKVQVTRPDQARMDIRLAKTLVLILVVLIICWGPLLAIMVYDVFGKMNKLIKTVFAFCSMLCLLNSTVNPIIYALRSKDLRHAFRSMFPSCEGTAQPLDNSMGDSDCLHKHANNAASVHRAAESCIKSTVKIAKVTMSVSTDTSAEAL

Row | SMILES | inhibition at 10 µM (human CB1 receptor) | inhibition at 10 µM (human CB2 receptor) | EC50 (ABCA1 protein) | inhibition at 10 µM (human CB1 receptor; [1])
1 | CC(C)c1nc(CNC(=O)c2cnc(OCC(F)(F)F)c(-c3ccc(Cl)cc3)c2)cs1 [Example 8, 5-(4-chloro-phenyl)-N-(2-isopropyl-thiazol-4-ylmethyl)-6-(2,2,2-trifluoro-ethoxy)-nicotinamide] | 24% | 10% | 900 nM | 
2 | O=C(NCc1nc(C(F)(F)F)no1)c1ccc(OCC(F)(F)F)c(-c2ccc(Cl)cc2)n1 [Example 22, 6-(4-chloro-phenyl)-5-(2,2,2-trifluoro-ethoxy)-pyridine-2-carboxylic acid (3-trifluoromethyl-[1,2,4]oxadiazol-5-ylmethyl)-amide] |  | 6% | 2270 nM | 40%
3 | COc1cc(CNC(=O)c2cc(-c3ccc(Cl)cc3)c(OCC(F)(F)F)nn2)on1 [Example 23, 5-(4-chlorophenyl)-N-((3-methoxyisoxazol-5-yl)methyl)-6-(2,2,2-trifluoroethoxy)pyridazine-3-carboxamide] |  | 7% | 930 nM | 18%
4 | COc1cc(CNC(=O)c2cnc(O[C@@H](C)C(F)(F)F)c(-c3ccc(Cl)cc3)c2)on1 [Example 34, (S)-5-(4-chlorophenyl)-N-((3-methoxyisoxazol-5-yl)methyl)-6-(1,1,1-trifluoropropan-2-yloxy)nicotinamide] |  | 14% | 770 nM | 33%
5 | COc1cc(CNC(=O)c2cnc(OCC(F)(F)F)c(-c3ccc(F)c(F)c3)c2)on1 [Example 99, 5-(3,4-difluorophenyl)-N-((3-methoxyisoxazol-5-yl)methyl)-6-(2,2,2-trifluoroethoxy)nicotinamide] |  | 9% | 1250 nM | 20%
6 | C[C@H](Oc1ncc(C(=O)NCc2nc(C(F)(F)F)no2)cc1-c1ccc(Cl)cc1)C(F)(F)F [Example 38, (S)-5-(4-chlorophenyl)-N-((3-(trifluoromethyl)-1,2,4-oxadiazol-5-yl)methyl)-6-(1,1,1-trifluoropropan-2-yloxy)nicotinamide] |  | -2% | 950 nM | 32%
7 | O=C(NCc1nc(C(F)(F)F)no1)c1cnc(OCC(F)(F)F)c(-c2ccc(Cl)cc2)c1 [Example 15, 5-(4-chloro-phenyl)-6-(2,2,2-trifluoro-ethoxy)-N-(3-trifluoromethyl-[1,2,4]oxadiazol-5-ylmethyl)-nicotinamide] |  | -6% | 840 nM | 45%
8 | COc1cc(CNC(=O)c2cc(-c3ccc(Cl)cc3)c(OCC(F)(F)F)cn2)on1 [Example 1, 4-(4-chloro-phenyl)-5-(2,2,2-trifluoro-ethoxy)-pyridine-2-carboxylic acid (3-methoxy-isoxazol-5-ylmethyl)-amide] |  | 28% | 2010 nM | 32%
9 | CCCc1nc(CNC(=O)c2cnc(OCC(F)(F)F)c(-c3ccc(Cl)cc3)c2)cs1 [Example 9, 5-(4-chloro-phenyl)-N-(2-propyl-thiazol-4-ylmethyl)-6-(2,2,2-trifluoro-ethoxy)-nicotinamide] |  | 1% | 900 nM | 18%
10 | CC(C)c1nc(CNC(=O)c2cc(-c3ccc(Cl)cc3)c(OCC(F)(F)F)cn2)cs1 [Example 6, 4-(4-chloro-phenyl)-5-(2,2,2-trifluoro-ethoxy)-pyridine-2-carboxylic acid (2-isopropyl-thiazol-4-ylmethyl)-amide] |  | 15% | 7800 nM | 5%
11 | CC(C)c1cc(CNC(=O)c2cc(-c3ccc(Cl)cc3)c(OCC(F)(F)F)nn2)no1 [Example 42, 5-(4-chloro-phenyl)-6-(2,2,2-trifluoro-ethoxy)-pyridazine-3-carboxylic acid (5-isopropyl-isoxazol-3-ylmethyl)-amide] |  | 13% | 800 nM | 34%
